Measurements reported in US20090105322A1, “PHARMACEUTICAL COMPOSITION COMPRISING VALSARTAN” (priority 2003, published 2009).

Experiments:
[1] = test system: rapid pacing induced heart failure; assay: Rapid pacing induced heart failure model in mini pigs; type: in vivo; details: valsartan in combination with an ACE inhibitor, compared to either ACE inhibition or AT1-receptor blockade alone
Description: The effect of valsartan alone and in combination with an ACE inhibitor was studied in a model of rapid pacing induced heart failure in mini pigs.

[2] = test system: AF occurrence in patients with symptomatic HF (EF<40% and dilated ventricle-LVIDD>2.9); assay: Occurrence of AF from adverse event reports in the Val-HeFT trial; type: in vivo, human
Protocol: The occurrence of AF was evaluated based on adverse event reports in the patients with symptomatic heart failure (ejection fraction<40% and dilated ventricle-left ventricular internal diastolic diameter (LVIDD)>2.9) enrolled in the Val-HeFT trial. The Val-HeFT trial is set forth in Example 2. The occurrence of AF was evaluated based on adverse event reports in the patients with symptomatic HF (EF<40% and dilated ventricle-LVIDD>2.9) enrolled in the Val-HeFT trial (set forth in Example 2). Patients were randomized to valsartan or placebo on top of the prescribed treatments for heart failure. During the 23 months of follow-up of the study, AF was reported in 328/5000 patients (6.6%), 132/2506 (5.27%) in the valsartan allocated patients and 196/2494 (7.86%) in those allocated to placebo (p=0.0002). […] This is a multicountry, randomized, double-blind, forced titration, parallel, placebo-controlled trial. Patients will be stratified according to their use of beta blockers at randomization. At Visit 2, patients who meet the randomization criteria will be stratified according to their use of beta blockers and randomized to receive either valsartan 40 mg b.i.d. or placebo (Level 1). After 2 weeks of treatment (Visit 3), patients will be titrated up to receive either valsartan 80 mg b.i.d. or placebo, respectively (Level 2). The criteria for titration are given below. Following another 2 week treatment period (Visit 4), patients will again be titrated up to receive valsartan 160 mg b.i.d. or placebo, respectively (Level 3). The criteria for titration are given below. Patients not tolerating the highest dose of valsartan will be titrated down to the next lower dose after 2 weeks of treatment (Visit 5).

[3] = test system: cardiac hemodynamics in CHF patients (NYHA Class II-IV); assay: Protocol 103: chronic central hemodynamic effects in non-ACE inhibitor treated CHF patients; type: in vivo, human; details: 40, 80 and 160 mg b.i.d. for 4 weeks; preliminary trial results
Protocol: Two Phase II studies (Protocols 103 and 104) have been recently completed. Protocol 103 is a randomized, double-blind, placebo-controlled, parallel group, dose ranging trial to determine the chronic central hemodynamic effects of valsartan 40 mg b.i.d., 80 mg b.i.d., 160 mg b.i.d. and lisinopril 10 mg o.d. administered for 4 weeks to non-ACE inhibitor treated CHF patients (NYHA Class II-IV).

[4] = test system: systolic and diastolic blood pressure in patients with essential arterial hypertension; assay: Treatment of patients with essential arterial hypertension; type: in vivo, human; details: 80 mg o.d.; compared with ACE inhibitors and other antihypertensive medications
Description: Valsartan (CGP 48933) is an orally active, potent and specific competitive Ang II antagonist at the level of the AT1-receptor subtype.

CCCCC(=O)N(Cc1ccc(-c2ccccc2-c2nnn[nH]2)cc1)[C@H](C(=O)O)C(C)C [valsartan, (S)-N-(1-carboxy-2-methyl-prop-1-yl)-N-pentanoyl-N-[2; (1H-tetrazol-5-yl)biphenyl-4-yl-methyl]amine]
Left ventricular function and geometry, and myocyte inotropic response [1]: further beneficial effects on left ventricular function and geometry, and myocyte inotropic response
AF reported (percent of allocated patients) ([2]; 23 months of follow-up, valsartan on top of prescribed heart failure treatments, vs placebo 7.86%, p=0.0002): 5.27%
AF reported (patients with AF / patients allocated) ([2]; 23 months of follow-up, valsartan on top of prescribed heart failure treatments, vs placebo 196/2494): 132/2506
Reduction of the incidence of AF ([2]; valsartan added to prescribed therapy (93% ACE-inhibitors, 35% beta-blockers)): ~35%
RR for AF occurrence (logistic regression analysis) ([2]; valsartan treatment as independent predictor, 95% CI: 0.52-0.82): 0.65
Cardiac hemodynamics versus placebo [3]: clinically relevant and statistically significant improvements in cardiac hemodynamics versus placebo
Decreases in systolic and diastolic blood pressure [4]: comparable to those achieved by treatment with ACE inhibitors and other antihypertensive medications
Tolerability profile [4]: more favorable tolerability profile
